Assay results reported in US7482346B2, “Derivatives of alkylpiperazine and alkylhomopiperazine-carboxylates, preparation method thereof and use of same as fatty acid amido hydrolase enzyme inhibitors” (Sanofi-Aventis, priority 2004, dated 2009).
Where a name gives a salt, the structure may show the parent alone.

biological target: T1, FAAH (fatty acid amide hydrolase) (Mus musculus, UniProt O08914); experiment: radio-enzymatic assay of FAAH inhibition (hydrolysis of anandamide [1-3H ethanolamine]); assay type: biochemical; conditions: mouse brain membrane homogenates; anandamide [1-3H ethanolamine] 10 μM; 15 minutes at 25° C.; read-out: IC50 (concentration inhibiting by 50% the control enzyme activity of FAAH)
T1 construct: Membrane homogenates are prepared at the time of use by homogenizing the tissues in a Polytron; from tissue; host or cells: mouse brain (minus the cerebellum), membrane homogenate
T1 sequence (O08914 1-579): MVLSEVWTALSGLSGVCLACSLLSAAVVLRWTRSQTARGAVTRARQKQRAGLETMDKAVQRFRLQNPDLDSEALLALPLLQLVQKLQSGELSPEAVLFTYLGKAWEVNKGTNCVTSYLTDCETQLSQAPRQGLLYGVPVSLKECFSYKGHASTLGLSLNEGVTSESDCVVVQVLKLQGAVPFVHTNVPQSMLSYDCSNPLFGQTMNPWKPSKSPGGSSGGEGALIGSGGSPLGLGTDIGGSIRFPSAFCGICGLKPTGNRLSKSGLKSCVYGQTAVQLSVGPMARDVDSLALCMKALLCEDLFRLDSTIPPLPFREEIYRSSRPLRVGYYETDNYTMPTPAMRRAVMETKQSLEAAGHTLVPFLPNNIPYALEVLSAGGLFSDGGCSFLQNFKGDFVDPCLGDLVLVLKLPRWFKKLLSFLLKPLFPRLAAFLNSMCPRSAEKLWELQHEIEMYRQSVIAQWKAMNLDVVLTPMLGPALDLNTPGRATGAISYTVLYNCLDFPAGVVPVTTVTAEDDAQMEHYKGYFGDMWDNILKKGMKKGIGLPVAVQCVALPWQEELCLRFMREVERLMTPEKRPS
Procedure: The compounds of the invention were subjected to pharmacological tests permitting determination of their inhibitory effect on the enzyme FAAH (fatty acid amide hydrolase).
Accordingly, mouse brains (minus the cerebellum) are removed and stored at −80° C. Membrane homogenates are prepared at the time of use by homogenizing the tissues in a Polytron in a 10 mM Tris-HCl buffer (pH 8) containing 150 mM NaCl and 1 mM EDTA. The enzyme reaction is subsequently conducted in 70 μl of buffer containing bovine serum albumin without fatty acids (1 mg/ml). In succession, the test compounds, at various concentrations, anandamide [1-^3H ethanolamine] (specific activity: 15-20 Ci/mmol) diluted to 10 μM with cold anandamide, and the membrane preparation (400 μg of frozen tissue per assay) are added. After 15 minutes at 25° C. the enzyme reaction is terminated by adding 140 μl of chloroform/methanol (2:1). The mixture is stirred for 10 minutes and then centrifuged for 15 minutes at 3500 g. An aliquot (30 μl) of the aqueous phase containing the 1-^3H ethanolamine is counted by liquid scintillation.

Q: With `CNC(=O)COC(=O)N1CCN(CCc2cccc3ccccc23)CC1` [Compound 21, 2-(methylamino)-2-oxoethyl 4-[2-(1-naphthyl)ethyl]piperazine-1-carboxylate] as the compound, how does the IC50 read?
A: The IC50 was 72 nM.

Q: With `CNC(=O)COC(=O)N1CCN(CCCc2cccc(-c3ccccc3)c2)CC1` [Compound 48, 2-(methylamino)-2-oxoethyl 4-(3-biphenyl-3-ylpropyl)piperazine-1-carboxylate] as the compound, how does the IC50 read?
A: The IC50 was 50 nM.

Q: For `CNC(=O)COC(=O)N1CCN(CCCc2ccc(-c3ccccc3)cc2)CC1` [Compound 49, 2-(methylamino)-2-oxoethyl 4-(3-biphenyl-4-ylpropyl)piperazine-1-carboxylate], which IC50 is on record?
A: Its IC50 is 32 nM.

system: male OFI mice; experiment: analgesia test: abdominal stretches induced by PBQ (phenylbenzoquinone); assay type: in vivo, mouse; conditions: dose of 10 mg/kg at 120 minutes, PBQ 2 mg/kg i.p.
Procedure: The in vivo activity of the compounds of the invention was evaluated in an analgesia test.
Accordingly, intraperitoneal (i.p.) administration of PBQ (phenylbenzoquinone, 2 mg/kg in a 0.9% sodium chloride solution containing 5% of ethanol) to male OFI mice weighing 25 to 30 g causes abdominal stretches, on average 30 twists or contractions during the period from 5 to 15 minutes after injection. The test compounds are administered orally (p.o.) or intraperitoneally (i.p.) in suspension in Tween 80 at 0.5%, 60 minutes or 120 minutes before the administration of PBQ. […] For example, compounds 49 and 69 of the table reduce by 43% and 47% respectively, the number of stretches induced by PBQ, at a dose of 10 mg/kg at 120 minutes.

Q: With `CNC(=O)COC(=O)N1CCN(CCCc2ccc(-c3ccccc3)cc2)CC1` [Compound 49, 2-(methylamino)-2-oxoethyl 4-(3-biphenyl-4-ylpropyl)piperazine-1-carboxylate] as the compound, how does the “reduction of the number of stretches induced by PBQ” value read?
A: Its value is 43%.

Q: Which “reduction of the number of stretches induced by PBQ” value does the source give for `CNC(=O)COC(=O)N1CCN(CCCc2cc(-c3ccc(Cl)cc3)no2)CC1` [Compound 69, 2-(methylamino)-2-oxoethyl 4-{3-[3-(4-chlorophenyl)isoxazol-5-yl]propyl}piperazine-1-carboxylate] here?
A: The value was 47%.

system: not given; experiment: not given; conditions: not given

Q: Which melting point does the source give for `CNC(=O)COC(=O)N1CCN(C(C)(C)CCc2cccc(-c3ccccc3)c2)CC1` (as salt: HCl) [Compound 50, 2-(methylamino)-2-oxoethyl 4-(3-biphenyl-3-yl-1,1-dimethylpropyl)piperazine-1-carboxylate hydrochloride] here?
A: The melting point was 212 to 216 °C (dec.).

Q: For `CNC(=O)COC(=O)N1CCN(CCc2ccc3ccccc3c2)CC1` [Compound 25, 2-(methylamino)-2-oxoethyl 4-(2-naphthalen-2-ylethyl)piperazine-1-carboxylate], which melting point is on record?
A: The melting point was 133 to 135 °C.

Q: With `CNC(=O)COC(=O)N1CCN(CCc2cc(-c3ccc(Cl)cc3)no2)CC1` [Compound 29, 2-(methylamino)-2-oxoethyl 4-{2-[3-(4-chlorophenyl)isoxazol-5-yl]ethyl}piperazine-1-carboxylate] as the compound, how does the melting point read?
A: Its melting point is 130 to 132 °C.

Q: Which melting point does the source give for `CNC(=O)COC(=O)N1CCN(CCCc2cccc(-c3cccc(Cl)c3)c2)CC1` [Compound 52, 2-(methylamino)-2-oxoethyl 4-[3-(3′-chlorobiphenyl-3-yl)propyl]piperazine-1-carboxylate] here?
A: The melting point was 82 to 85 °C.

Q: Which melting point does the source give for `CNC(=O)COC(=O)N1CCN(C/C=C/c2ccccc2)CC1` [Compound 85, 2-(methylamino)-2-oxoethyl trans-4-(3-phenylprop-2-en-1-yl)piperazine-1-carboxylate] here?
A: The melting point was 109 to 111 °C.

Q: For `NC(=O)COC(=O)N1CCCN(CC#Cc2cccc(C(F)(F)F)c2)CC1` [Compound 99, 2-amino-2-oxoethyl 4-{3-[3-(trifluoromethyl)phenyl]prop-2-yn-1-yl}-1,4-diazepane-1-carboxylate], which melting point is on record?
A: Its melting point is 102 to 104 °C.

Q: For `CNC(=O)COC(=O)N1CCN(CCOc2ccc(Cl)cc2)CC1` [Compound 130, 2-(methylamino)-2-oxoethyl 4-{2-[(4-chlorophenyl)oxy]ethyl}piperazine-1-carboxylate], which melting point is on record?
A: Its melting point is 159 to 161 °C.
